Assay results taken from ChEMBL document CHEMBL5357012, “Dual N6/C7-Substituted 7-Deazapurine and Tricyclic Ribonucleosides with Affinity for G Protein-Coupled Receptors” (ACS Med Chem Lett, 2024).

Key:
[1] = target: Kappa-type opioid receptor (Homo sapiens, UniProt P41145); experiment: Inhibition of human KOR assessed as inhibition constant by microbeta scintillation counting method
[2] = target: 5-hydroxytryptamine receptor 2B (Homo sapiens, UniProt P41595)
Description: Inhibition of human 5-HT2B receptor assessed as inhibition constant by microbeta scintillation counting method

[3] = Cytotoxicity against human MRC5 cells assessed as reduction in cell viability measured after 3 days by resazurin dye based fluorimetric analysis

Sequence of 5-hydroxytryptamine receptor 2B (P41595 whole entry): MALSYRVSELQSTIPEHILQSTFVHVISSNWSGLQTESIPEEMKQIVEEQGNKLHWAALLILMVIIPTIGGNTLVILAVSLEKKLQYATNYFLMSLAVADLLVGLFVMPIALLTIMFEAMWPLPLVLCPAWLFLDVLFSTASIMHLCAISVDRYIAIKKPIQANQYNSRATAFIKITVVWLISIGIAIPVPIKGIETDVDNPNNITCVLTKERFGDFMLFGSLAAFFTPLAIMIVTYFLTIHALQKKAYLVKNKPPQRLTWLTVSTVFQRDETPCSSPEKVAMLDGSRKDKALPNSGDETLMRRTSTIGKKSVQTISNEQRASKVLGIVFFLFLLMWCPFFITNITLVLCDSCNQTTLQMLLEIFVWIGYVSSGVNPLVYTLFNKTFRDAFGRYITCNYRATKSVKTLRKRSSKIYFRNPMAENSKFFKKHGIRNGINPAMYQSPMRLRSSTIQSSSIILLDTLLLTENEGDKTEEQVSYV
Sequence of Kappa-type opioid receptor (P41145 whole entry): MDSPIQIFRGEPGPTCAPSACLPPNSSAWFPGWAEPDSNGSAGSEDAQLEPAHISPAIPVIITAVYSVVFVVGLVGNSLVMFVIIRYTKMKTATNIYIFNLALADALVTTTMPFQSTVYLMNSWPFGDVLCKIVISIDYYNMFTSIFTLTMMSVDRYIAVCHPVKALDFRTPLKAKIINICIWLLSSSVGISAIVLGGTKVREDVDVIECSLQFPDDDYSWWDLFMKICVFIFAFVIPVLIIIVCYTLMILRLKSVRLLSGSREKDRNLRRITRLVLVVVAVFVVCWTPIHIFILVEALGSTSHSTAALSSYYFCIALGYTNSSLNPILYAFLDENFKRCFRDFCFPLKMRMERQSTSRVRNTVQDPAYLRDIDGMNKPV

Ki [1] [nM]	Ki [2] [nM]	SMILES	CC50 at 72 h [3] [nM]
1900		C[C@H](Nc1ncnc2c1c(C(F)(F)F)cn2[C@@H]1O[C@H](CO)[C@@H](O)[C@H]1O)c1ccccc1	
	550	OC[C@H]1O[C@@H](n2cc(C(F)(F)F)c3c(NCc4ccccc4Cl)ncnc32)[C@H](O)[C@@H]1O	
1800	500	OC[C@H]1O[C@@H](n2cc(C(F)(F)F)c3c(NCc4ccccc4)ncnc32)[C@H](O)[C@@H]1O	
	830	OC[C@H]1O[C@@H](n2cc(C(F)(F)F)c3c(NCc4ccc(Cl)cc4)ncnc32)[C@H](O)[C@@H]1O	
	710	C[C@@H](Nc1ncnc2c1c(C(F)(F)F)cn2[C@@H]1O[C@H](CO)[C@@H](O)[C@H]1O)c1ccccc1	
	1200	OC[C@H]1O[C@@H](n2cc(C(F)(F)F)c3c(NCc4ccccc4F)ncnc32)[C@H](O)[C@@H]1O	> 64000
	620	OC[C@H]1O[C@@H](n2cc(C(F)(F)F)c3c(NCc4cccc(Cl)c4)ncnc32)[C@H](O)[C@@H]1O	> 64000
